PubChem BioAssay (NCI)
Where “and” joins values, the source holds several entries; their conditions need not be identical. Equal entries are not always repeated.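 Test compounds were applied to cells in 96-well plates for 48 hours at 5 doses. GI50 is the concentration that inhibits growth by half. The concentration for full growth arrest is given as TGI.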

What was measured:
Experiment in all cases: NCI tumour cell line growth inhibition, 48 h
786-0 renal = tested on: 786-0 renal
A498 renal = tested on: A498 renal
HCT-116 colon = tested on: HCT-116 colon
HOP-92 NSCLC = tested on: HOP-92 NSCLC
HT29 colon = tested on: HT29 colon
MDA-MB-231 breast = tested on: MDA-MB-231 breast
OVCAR-5 ovarian = tested on: OVCAR-5 ovarian
OVCAR-8 ovarian = tested on: OVCAR-8 ovarian
PC-3 prostate = tested on: PC-3 prostate
SF-295 CNS = tested on: SF-295 CNS

SMILES	GI50 (786-0 renal) [µM]	TGI (786-0 renal) [µM]	GI50 (A498 renal)	TGI (A498 renal)	GI50 (HCT-116 colon)	TGI (HCT-116 colon)	GI50 (HOP-92 NSCLC)	TGI (HOP-92 NSCLC)	GI50 (HT29 colon)	TGI (HT29 colon)	GI50 (MDA-MB-231 breast) [µM]	TGI (MDA-MB-231 breast)	GI50 (OVCAR-5 ovarian)	TGI (OVCAR-5 ovarian)	GI50 (OVCAR-8 ovarian) [µM]	TGI (OVCAR-8 ovarian)	GI50 (PC-3 prostate)	TGI (PC-3 prostate)	GI50 (SF-295 CNS) [µM]	TGI (SF-295 CNS) [µM]
Nc1c(C(=O)c2ccccc2)cnn1-c1ccc(F)cc1	> 25	> 25	> 25 µM	> 25 µM	> 25 µM	> 25 µM	> 19.3 µM	> 25 µM	> 25 µM	> 25 µM	> 25	> 25 µM	> 25 µM	> 25 µM	> 25	> 25 µM	> 25 µM	> 25 µM	> 25	> 25
BrCc1cccc(C[P+](c2ccccc2)(c2ccccc2)c2ccccc2)c1	46.2	> 100	59.5 µM	> 100 µM	6.02 µM	> 100 µM	2.84 µM	52.4 µM	14.9 µM	> 100 µM	33	> 100 µM	30.2 µM	> 100 µM	6.65	> 100 µM	6.26 µM	> 100 µM	35.5	> 100
CC1CCN(C(=O)OCc2nc3nc(Cl)nc(N4CCOCC4)c3[nH]2)CC1	1.29	2.69	1.65 µM	4.05 µM	0.209 µM	1.16 µM	0.0497 µM	1.06 µM	0.831 µM	6.38 µM	1.25	2.7 µM	1.31 µM	2.73 µM	1.9	9.02 µM	0.832 µM	2.42 µM	3.76	15.3
CCCCCCCN=C(N)c1ccc(N2CCN(c3ccc(C(N)=NCCCCCCC)cc3)CC2)cc1	0.596	> 100	3.32 µM	> 100 µM		> 72.1 µM	0.463 µM	> 100 µM	2.98 µM	> 100 µM	0.165	0.703 µM	0.849 µM	29.3 µM	0.376	7.34 µM	0.268 µM	> 20 µM	0.0628	0.28
COc1ccc(C2=C(c3ccc(OC)cc3)C(=O)N3CCCC3C2)cc1 (stereo not drawn)	9.92	> 100	45.9 µM	> 100 µM	2.96 µM	32.8 µM	> 95.1 µM	> 100 µM	6.19 µM	> 100 µM	25.4	> 73.9 µM	> 83.7 µM	> 100 µM	10.4	> 100 µM	12.4 µM	> 100 µM	9.26	> 100
O=C1c2cccc3cccc(c23)C(=O)N1CCCCCN1CCN(CCCCCOc2ccc(-c3nc4ccc(N5CCOCC5)cc4[nH]3)cc2)CC1	22.9	51.3	> 74.9 µM	> 100 µM	5.06 µM	> 100 µM	25.1 µM	> 58.2 µM	5.99 µM	23.8 µM	12.6	> 20.4 µM	> 100 µM	> 100 µM	1.32	4.95 µM	2.77 µM	17.6 µM	8.04	25.4
S=c1[nH]c2c(Cl)c(Cl)c(Cl)c(Cl)c2[nH]1		63.3		46.5 µM		46.8 µM		53.6 µM		48.1 µM		47.9 µM		65 µM		57.4 µM		77.6 µM		47.1
CN(C)c1ncnc2c1ncn2CCn1cnc2c(N(C)C)ncnc21		> 100		> 100 µM		> 100 µM		> 100 µM		> 100 µM		> 100 µM		> 100 µM		> 100 µM		> 100 µM		> 100
CCc1c(Cl)c(C)cc(O)c1Cl		> 100		54.7 µM		> 100 µM		92.3 µM		77.6 µM		> 100 µM		> 100 µM		> 100 µM		51.3 µM		> 100
COC(=O)c1ccc(-c2c(C#N)[n+](=O)c3cc(Cl)c(Cl)cc3n2[O-])cc1	17.6	35.6	38.6 µM	> 100 µM	13.3 µM	> 100 µM	11.1 µM	34.9 µM	19.9 µM	58 µM	14.4	33.5 µM	19.2 µM	39.4 µM	24.3	55.6 µM	9.79 µM	27.9 µM	12.5	33.7
CCOC(=O)/C=C/c1ccc(C#Cc2ccccc2)cc1	> 100	> 100	44.9 µM	> 100 µM	> 100 µM	> 100 µM	> 100 µM	> 100 µM	> 100 µM	> 100 µM	> 100	> 100 µM	> 100 µM	> 100 µM	> 100	> 100 µM	> 100 µM	> 100 µM	55.1	> 100
COc1ccc2c(c1)c[n+](C)c1c3cc(OC)c(OC)cc3ccc21	2.85	15.9	2.02 µM and 19.7 µM	6.85 µM and 57.7 µM	1.08 µM and 2.48 µM	2.32 µM and 10 µM	3.69 µM and 14.6 µM	9.98 µM and 35.1 µM	1.01 µM and 3.61 µM	2.31 µM and 15.5 µM		2.83 µM and 3.07 µM	1.52 µM and 11.8 µM	5.17 µM and 25 µM		4.61 µM and 6.34 µM	1.36 µM and 4.32 µM	3.84 µM and 16 µM	5.06	17.8
COc1cc2c3c(c1OC)-c1cc4c(cc1CC3(C#N)N(C(=O)c1ccccc1)CC2)OCO4 (stereo not drawn)		57.7		82.3 µM		> 87.2 µM		32.5 µM		> 100 µM		> 100 µM		> 56.2 µM		> 74.2 µM		> 100 µM		58.7
Cn1c(=O)c(Oc2ccc(F)cc2)cc2cnc(NC3CCOCC3)nc21	> 25	> 25	13.4 µM	> 25 µM	> 25 µM	> 25 µM	4.72 µM	> 25 µM	> 25 µM	> 25 µM	> 25	> 25 µM	> 25 µM	> 25 µM	> 25	> 25 µM	> 25 µM	> 25 µM	> 25	> 25
CS(=O)(=O)Nc1cc(-c2ccc3ncnc(Nc4c(Cl)ccc5c4OCO5)c3c2)cnc1Cl	0.233	6.46	< 0.0135 µM	0.127 µM	0.269 µM	1.97 µM	0.0597 µM	0.639 µM	0.238 µM	3.93 µM	0.246	2.35 µM	0.164 µM	2.1 µM	0.387		0.178 µM	1.77 µM	0.171	1.1
C[C@@]12CCC[C@@](C)(C(=O)O)C1CC[C@]13CC(=O)[C@](CO)(C1)[C@@H](O)CC32 (stereo partly drawn)	> 100	> 100	> 100 µM	> 100 µM	> 100 µM	> 100 µM	> 100 µM	> 100 µM	> 100 µM	> 100 µM	> 100	> 100 µM	> 100 µM	> 100 µM	> 100	> 100 µM	> 100 µM	> 100 µM	> 100	> 100
O=S(=O)(Nc1ccc(Cl)cc1Cl)c1ccc(-c2cnc(C3CC3)o2)cc1	0.615	> 86.5	0.197 µM	0.875 µM	0.431 µM	> 65.4 µM	0.491 µM	15.3 µM	0.41 µM	30.6 µM	2.08	28.4 µM	2.66 µM	> 100 µM	1.79	> 82.1 µM	0.612 µM	> 53.2 µM	0.335	3.4
C#Cc1nc(Nc2cc(C)[nH]n2)c2ccccc2n1	0.349	1.13	0.139 µM	0.3 µM	0.248 µM	0.951 µM	0.293 µM	1.25 µM	0.356 µM	11.3 µM	0.203	0.424 µM	0.332 µM	0.995 µM	0.325	> 100 µM	0.317 µM	1.4 µM	0.609	2.26
CC1(Br)Cc2ccccc2C1=O (stereo not drawn)		6.39		57.2 µM	2.01 µM	5.02 µM		16.5 µM		15.4 µM		22.9 µM		14.2 µM	4.11	15.7 µM		22.5 µM		36.2
C[C@H](Nc1cc(Cl)nc2c1cnn2[C@@H]1O[C@H](COP(=O)(O)CP(=O)(O)O)[C@@H](O)[C@H]1O)c1ccccc1F	> 100	> 100	32.3 µM	> 100 µM	> 100 µM	> 100 µM	> 100 µM	> 100 µM	> 100 µM	> 100 µM	> 100	> 100 µM	> 100 µM	> 100 µM	> 100	> 100 µM	> 100 µM	> 100 µM	> 100	> 100
O=C(NNc1ccccc1)C(=O)NNc1ccccc1	53.9	> 100	> 100 µM	> 100 µM	6.42 µM	> 100 µM	> 100 µM	> 100 µM	> 100 µM	> 100 µM	24.1	> 100 µM	> 100 µM	> 100 µM	> 100	> 100 µM	> 100 µM	> 100 µM	2.1	> 100
COC(=O)c1ccc2c(c1)/C(=C\c1cc(Br)c(O)c(Br)c1)C(=O)N2	10.1	> 25	3.48 µM	11 µM	8.29 µM	> 25 µM	2.45 µM	17.4 µM	4.3 µM	> 25 µM	6.83	> 25 µM	13.5 µM	> 25 µM	13	> 25 µM	7.68 µM	> 25 µM	5.1	> 24
O=C(O)c1ccc(C(=O)O)c2c(C(=O)O)ccc(C(=O)O)c12		> 100		> 100 µM		> 100 µM		> 100 µM		> 100 µM		> 100 µM		> 100 µM		> 100 µM		> 100 µM		> 100
CCc1ccc(/C=C/c2ccc(O)c3ncccc23)[n+](C)c1	> 100	> 100	1.42 µM	> 63 µM	4.02 µM	> 100 µM	0.0293 µM	3.54 µM	> 29.3 µM	> 100 µM	57.9	> 100 µM	> 100 µM	> 100 µM	0.668	> 100 µM	6.09 µM	> 100 µM	1.88	> 100
CN1CC[C@@H](c2c(O)cc(O)c3c(=O)cc(-c4ccc(C(F)(F)F)cc4Cl)oc23)[C@@H]1CO	13.3	31.9	14.2 µM	27.6 µM	11.4 µM	24.2 µM	13 µM	40.3 µM	17.6 µM	33.9 µM	12.7	34.3 µM	14.1 µM	59.3 µM	18.2	42 µM	19 µM	44.5 µM	16.7	36.4
CC(C)OC(=O)[C@H](C)NP(=O)(OC[C@H]1O[C@@H](n2ccc(=O)[nH]c2=O)[C@](C)(F)[C@@H]1O)Oc1ccccc1 (stereo partly drawn)	> 100	> 100	> 100 µM	> 100 µM	> 100 µM	> 100 µM	> 100 µM	> 100 µM	> 100 µM	> 100 µM	> 100	> 100 µM	> 100 µM	> 100 µM	> 100	> 100 µM	> 100 µM	> 100 µM	> 100	> 100
COc1cc(/C=C/C(=O)c2cccc(-n3cc(-c4ccc(Cl)cc4)[nH]c3=O)c2)ccc1O	2.54	6.69	5.78 µM	16.7 µM	1.57 µM	3.82 µM	1.52 µM	7.05 µM	2.97 µM	> 100 µM	3.46	> 39.1 µM	6.45 µM	15.1 µM	2.39	> 27.3 µM	1.95 µM	6.97 µM	8.08	31.8
